{
  "source": "ChEMBL document CHEMBL1156449",
  "about": "“The nucleoside analog sangivamycin induces apoptotic cell death in breast carcinoma MCF7/adriamycin-resistant cells via protein kinase Cdelta and JNK activation” (J Biol Chem, 2007)",
  "key": {"[1]": {"system": "MCF/WT", "assay": "Induction of apoptosis in human drug-sensitive MCF/WT cells assessed as activation of caspase 7 at 0.3 uM by immunoblot analysis", "format": "functional, cell-based"}, "[2]": {"system": "MCF/ADR", "assay": "Inhibition of induction of apoptosis in human multidrug resistant MCF/ADR cells assessed as inhibition of cleavage of lamin A at 0.3 uM after 48 hrs by immunoblot analysis in presence of pan-specific inhibitor", "format": "functional, cell-based"}, "[3]": {"assay": "Cell cycle arrest in human multidrug resistant MCF/ADR cells assessed as accumulation at S phase at 0.3 uM after 72 hrs by propidium fluorescence flow cytometry", "format": "functional, cell-based"}, "[4]": {"system": "MCF/WT", "assay": "Cytostatic effect in human drug sensitive MCF/WT cells assessed as slight increase in number of viable cells at 30 nM after 6 days by MTT colorimetric assay", "format": "functional, cell-based"}, "[5]": {"assay": "Cell cycle arrest in human multidrug resistant MCF/ADR cells assessed as accumulation at sub G0/G1 phase at 0.3 uM after 72 hrs by propidium fluorescence flow cytometry", "format": "functional, cell-based"}, "[6]": {"biological_target": "Transcription factor Jun (Homo sapiens) (UniProt P05412)", "sequence (P05412 whole entry)": "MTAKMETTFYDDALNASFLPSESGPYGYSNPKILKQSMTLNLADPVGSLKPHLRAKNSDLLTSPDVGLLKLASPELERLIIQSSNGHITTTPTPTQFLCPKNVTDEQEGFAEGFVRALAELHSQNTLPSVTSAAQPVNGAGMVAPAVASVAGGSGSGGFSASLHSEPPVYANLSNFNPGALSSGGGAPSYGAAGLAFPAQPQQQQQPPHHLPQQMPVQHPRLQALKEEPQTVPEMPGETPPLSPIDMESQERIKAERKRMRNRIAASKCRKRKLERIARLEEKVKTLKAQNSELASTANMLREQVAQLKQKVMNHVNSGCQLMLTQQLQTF", "assay": "Reduction in induction of c-Jun phosphorylation in human multidrug resistant MCF/ADR cells at 0.3 uM after 48 hrs by immunoblot analysis in presence of rottlerin", "format": "cell-based"}, "[7]": {"biological_target": "T1, Rhodopsin kinase GRK1 (Homo sapiens, UniProt Q15835)", "T1 sequence (Q15835 whole entry)": "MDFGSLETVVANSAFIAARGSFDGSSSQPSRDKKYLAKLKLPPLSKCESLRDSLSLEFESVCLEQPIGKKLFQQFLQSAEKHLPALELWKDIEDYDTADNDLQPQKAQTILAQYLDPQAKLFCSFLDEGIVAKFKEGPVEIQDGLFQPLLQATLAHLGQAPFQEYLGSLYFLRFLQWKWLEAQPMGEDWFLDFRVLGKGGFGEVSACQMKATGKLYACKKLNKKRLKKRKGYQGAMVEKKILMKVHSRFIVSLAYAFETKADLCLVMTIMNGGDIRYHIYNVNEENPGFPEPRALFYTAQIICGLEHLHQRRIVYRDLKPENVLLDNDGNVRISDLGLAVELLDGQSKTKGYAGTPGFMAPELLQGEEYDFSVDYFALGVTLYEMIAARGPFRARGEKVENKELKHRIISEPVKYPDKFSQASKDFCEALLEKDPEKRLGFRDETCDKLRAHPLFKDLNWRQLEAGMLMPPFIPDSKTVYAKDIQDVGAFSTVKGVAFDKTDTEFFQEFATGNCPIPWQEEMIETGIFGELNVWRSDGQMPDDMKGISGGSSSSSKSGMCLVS", "assay": "Inhibition of rhodopsin kinase"}, "[8]": {"assay": "Cell cycle arrest in human drug-sensitive MCF/WT cells assessed as accumulation at S phase at 0.3 uM after 72 hrs by propidium fluorescence flow cytometry", "format": "functional, cell-based"}, "[9]": {"system": "MCF/ADR", "assay": "Inhibition of induction of apoptosis in human multidrug resistant MCF/ADR cells assessed as inhibition of cleavage of PARP at 0.3 uM after 48 hrs by immunoblot analysis in presence of pan-specific inhibitor", "format": "functional, cell-based"}, "[10]": {"system": "MCF/ADR", "assay": "Increase in Bax levels in human multidrug resistant MCF/ADR cells at 0.3 uM by immunoblot analysis", "format": "functional, cell-based"}, "[11]": {"system": "MCF/WT", "assay": "Induction of apoptosis in human drug-sensitive MCF/WT cells assessed as cleavage of caspase 9 at 0.3 uM by immunoblot analysis", "format": "functional, cell-based"}, "[12]": {"assay": "Cell cycle arrest in human drug-sensitive MCF/WT cells assessed as accumulation at sub G0/G1 phase at 0.3 uM after 48 hrs by propidium fluorescence flow cytometry", "format": "functional, cell-based"}, "[13]": {"system": "MCF/WT", "assay": "Induction of apoptosis in human drug-sensitive MCF/WT cells assessed as cleavage of lamin A at 0.3 uM by immunoblot analysis", "format": "functional, cell-based"}, "[14]": {"system": "MCF/ADR", "assay": "Reduction in induction of apoptosis in SP600125 pretreated human multidrug resistant MCF/ADR cells assessed as reduction of cleavage of lamin A at 0.3 uM after 48 hrs by immunoblot analysis", "format": "functional, cell-based"}, "[15]": {"system": "MCF/ADR", "assay": "Inhibition of induction of apoptosis in human multidrug resistant MCF/ADR cells assessed as inhibition of cleavage of lamin A at 0.3 uM after 48 hrs by immunoblot analysis in presence of caspase 9-specific inhibitor", "format": "functional, cell-based"}},
  "note": "The source made the active and inactive calls. No cut-off for these calls is given here.",
  "data": [
    {"smiles": "NC(=O)c1cn([C@@H]2O[C@H](CO)[C@@H](O)[C@H]2O)c2ncnc(N)c12", "note": "[SANGIVAMYCIN]", "values": [
      {"measurement": "Activity", "setting": "[1]", "value": "inactive"},
      {"measurement": "Activity", "setting": "[2]", "value": "Active"},
      {"measurement": "Activity", "setting": "[3]", "value": 25, "unit": "%"},
      {"measurement": "Activity", "setting": "[4]", "value": "Active"},
      {"measurement": "Activity", "setting": "[5]", "value": 50, "unit": "%"},
      {"measurement": "Activity", "setting": "[6]", "value": "Active"},
      {"measurement": "Ki", "setting": "[7]", "value": 180, "unit": "nM"},
      {"measurement": "Activity", "setting": "[8]", "value": 11, "unit": "%"},
      {"measurement": "Activity", "setting": "[9]", "value": "Active"},
      {"measurement": "Activity", "setting": "[10]", "value": "Active"},
      {"measurement": "Activity", "setting": "[11]", "value": "inactive"},
      {"measurement": "Activity", "setting": "[12]", "value": 3, "unit": "%"},
      {"measurement": "Activity", "setting": "[13]", "value": "inactive"},
      {"measurement": "Activity", "setting": "[14]", "value": "Active"},
      {"measurement": "Activity", "setting": "[15]", "value": "Active"}
    ]}
  ]
}
